Patent US7776791B2, “N-heterocyclyl phenyl-substituted cyclic ketoenols” (Bayer CropScience AG, priority 2003, dated 2010)

Tests used:
Format in all cases: in vivo
[1] = tested on: larvae of the mustard beetle (Phaedon cochleariae); assay: Phaedon larvae test; settings: 500 ppm active compound, leaf dip
Experimental: Solvent: 7 parts by weight of dimethylformamide Emulsifier: 2 parts by weight of alkylaryl polyglycol ether To produce a suitable preparation of active compound, 1 part by weight of active compound is mixed with the stated amounts of solvent and emulsifier, and the concentrate is diluted with emulsifier-containing water to the desired concentration. Cabbage leaves (Brassica oleracea) are treated by being dipped into the preparation of active compound of the desired concentration and are populated with larvae of the mustard beetle (Phaedon cochleariae) while the leaves are still moist.

[2] = tested on: caterpillars of the army worm (Spodoptera frugiperda); assay: Spodoptera frugiperda test; settings: 100 ppm active compound, leaf dip
Experimental: Solvent: 7 parts by weight of dimethylformamide
Emulsifier: 2 parts by weight of alkylaryl polyglycol ether
To produce a suitable preparation of active compound, 1 part by weight of active compound is mixed with the stated amounts of solvent and emulsifier, and the concentrate is diluted with emulsifier-containing water to the desired concentration.
Cabbage leaves (Brassica oleracea) are treated by being dipped into the preparation of active compound of the desired concentration and are populated with caterpillars of the army worm (Spodoptera frugiperda) while the leaves are still moist.
After the desired period of time, the kill in % is determined. 100% means that all caterpillars have been killed; 0% means that none of the caterpillars have been killed.

[3] = tested on: monocotyledonous and dicotyledonous weed and crop plants; assay: Herbicidal post-emergence action (K); settings: greenhouse, 320 g of a.i./ha, EC formulation
Experimental: K. Herbicidal Post-Emergence Action
Seeds of monocotyledonous and dicotyledonous weed and crop plants are placed into sandy loam in wood fibre pots, covered with soil and cultivated in a greenhouse under good growth conditions. 2-3 weeks after sowing, the test plants are treated at the one-leaf stage. The test compounds, formulated as wettable powders (WP) or emulsifiable concentrates (EC), are, in various dosages with a water application rate of 600 l/ha (converted), with 0.2% of wetting agent added, sprayed onto the green parts of the plants. After the test plants were kept in a greenhouse under optimum growth conditions for about 3 weeks, the effect of the preparations is rated visually in comparison to untreated controls (herbicidal effect in percent (%): 100% effect=the plants have died, 0% effect=like controlled plants).

SMILES	Kill rate in % after 7 d [1] [%]	Kill rate in % after 7 d [2] [%]	herbicidal effect in percent, Echinochloa ([3]; Echinochloa) [%]	herbicidal effect in percent, Setaria ([3]; Setaria) [%]	herbicidal effect in percent, Sorghum ([3]; Sorghum) [%]	herbicidal effect in percent, Sugar beet ([3]; Sugar beet) [%]
Cc1ccc(-n2cc(Cl)cn2)cc1C1=C(O)C2(CCCCC2)CC1=O [Ex. I-6-a-1]	90					
COC1CCC2(CC1)NC(=O)C(c1cc(-n3cc(Cl)cn3)ccc1C)=C2O (stereo not shown) [Ex. I-1-a-1]		85	100	100	90	0
Cc1ccc(-n2cc(Cl)cn2)cc1C1=C(O)CC(C)(C)CC1=O [Ex. I-7-a-1]	100					
